In US5547941A, “Cyclic dinucleoside diphosphorothioates, related compounds and pharmaceutical compositions” (priority 1991, dated 1996):
Counter-ions that a name gives are not always drawn.

Columns and labels:
[1] = system: HIV; test: Anti-HIV activity on the RNA level: viral RNA synthesized by HIV-infected human lymphocytes (nucleic acid hybridization); assay type: cell-based, HIV (in peripheral human lymphocytes); details: for HIV RNA: 10 μM; for inhibition at 10 µM: Human immunodeficiency virus 1, Lymphocyte
Procedure: (§1) The compounds of the present invention were tested for antiviral activity on peripheral human lymphocytes isolated by density gradient centrifugation and stimulated with a mitogen.
(§2) Infection was performed with a standardized preparation of HIV and cells, cultured in the presence of the drug for 4 days.
The total amount of viral RNA synthesized by the infected lymphocytes was determined on day 2, 3 and 4 by a nucleic acid hybridization technique. By including a standard preparation of HIV-RNA, the amount of synthesized RNA was quantified.
(§3) The antiviral effect induced by the tested compounds was calculated from the inhibition of the evaluated parameters (i.e.: P24 or RNA) as compared with infected controls.

[2] = system: HIV; test: Anti-HIV activity on the protein level: viral core protein p24 in supernatant of HIV-infected mitogen-stimulated human lymphocytes (ELISA); assay type: cell-based, HIV (in peripheral human lymphocytes); details: for HIV p24 in supernatant: 10 μM; for inhibition at 10 µM: Human immunodeficiency virus 1, Lymphocyte
Procedure: as §1, §2
Individual cultures were established to measure viral replication 2, 3 and 4 days after infection. The amount of viral core protein P 24, synthesized and released by the infected cells, was determined in the supernatant of treated and untreated cells on days 2, 3 and 4 by an Elisa.
as §3

[3] = system: peripheral human lymphocytes; test: Cytotoxicity (10 μM stated to be non cytotoxic); assay type: cell-based
[4] = system: snake venom phosphodiesterase; test: Enzymatic hydrolysis of the deprotected dinucleotide thiophosphates by snake venom phosphodiesterase (HPLC substrate disappearance); assay type: biochemical, Crotalus durissus; details: for Reduction in the area of the HPLC peak relatively to the control / Substrate change on enzymatic hydrolysis (in words): 37° C., pH 8
Procedure: The two samples XIIa and XIIb can independently undergo an enzymatic degradation by action of an exonuclease like snake venom phosphodiesterase following the disappearance of starting sample by HPLC along the time. […] Accordingly the configuration RP has to be assigned to XIIa and configuration SP to XIIb.
The relative susceptivity of the two substrates XIIa and XIIb to hydrolysis by snake venom phosphodiesterase was determined by incubating a solution (3 mM) of each substrate in Tris buffer (25 mM) containing MgCl2 (5 mM) at pH 8 with the enzyme (1 mg in 0.5 ml) (from Crotalus durissus) purchased from Boehringer and following the substrate disappearance by HPLC. In particular for each substrate a solution was prepared consisting of 700 μl of buffer, 200 μl of substrate solution plus 50 μl of enzyme solution. For each substrate a control was prepared with the same components and volumes except for the enzyme that was replaced by an equal volume of buffer. The four solutions (the two substrates and the two controls) were incubated at 37° C. taking aliquots from each solution at 0 time, 1 hour, 17 hours. Such aliquots were analyzed by HPLC (Whatman Partisphere C18, eluting with a linear gradient from 10% to 30% of methanol 0.1 M ammonium acetate) at 220 nm.

[5] = 72 h, Day 3, read-out: Inhibition of HIV replication on the RNA level
[6] = 96 h, Day 4, read-out: Inhibition of HIV replication on the RNA level
[7] = 72 h, Day 3, read-out: Inhibition of HIV replication on the protein level
[8] = 96 h, Day 4, read-out: Inhibition of HIV replication on the protein level

Compound	HIV RNA ([1]; Day 2) [pg RNA/ml]	HIV RNA ([1]; Day 3, control 226 pg RNA/ml) [pg RNA/ml]	HIV RNA ([1]; Day 4, control 612 pg RNA/ml) [pg RNA/ml]	inhibition at 10 µM [1, 5] [%]	inhibition at 10 µM [1, 6] [%]	HIV p24 in supernatant ([2]; Day 2) [ng p24/ml]	HIV p24 in supernatant ([2]; Day 3, control 2.2 ng p24/ml) [ng p24/ml]	HIV p24 in supernatant ([2]; Day 4, control 21.5 ng p24/ml) [ng p24/ml]	inhibition at 10 µM [2, 7] [%]	inhibition at 10 µM [2, 8] [%]	Cytotoxicity [3]	Relative rate of enzymatic degradation ([4]; XIIa versus XIIb, snake venom phosphodiesterase)	Reduction in the area of the HPLC peak relatively to the control ([4]; after 1 hour) [%]	Reduction in the area of the HPLC peak relatively to the control ([4]; after 17 hours) [%]	Substrate change on enzymatic hydrolysis (in words) ([4]; after 1 hour)	Substrate change on enzymatic hydrolysis (in words) ([4]; after 17 hours)
Nc1ccn([C@H]2C[C@@H]3O[P@](O)(=S)OC[C@H]4O[C@@H](n5ccc(N)nc5=O)C[C@@H]4O[P@](O)(=S)OC[C@H]3O2)c(=O)n1 [Compound IIa, Cyclo-2'-deoxy-(RP)-P-thiocytidylyl-(3'→5')-2'-deoxy-(RP)-P-thiocytidylyl-(3'→5'), sodium salt]	0	188	465	17	24	0.0	0.1	17.1	97	20						
Nc1ccn([C@H]2C[C@@H]3O[P@@](O)(=S)OC[C@H]4O[C@@H](n5ccc(N)nc5=O)C[C@@H]4O[P@](O)(=S)OC[C@H]3O2)c(=O)n1 [Compound IIb, Cyclo-2'-deoxy-(SP)-P-thiocytidylyl-(3'→5')-2'-deoxy-(RP)-P-thiocytidylyl-(3'→5'), sodium salt]	0	0	266	100	56	0.0	0.0	3.7	100	83	non cytotoxic					
Nc1ccn([C@H]2C[C@H](O[P@](O)(=S)OC[C@H]3O[C@@H](n4ccc(N)nc4=O)C[C@@H]3O)[C@@H](CO)O2)c(=O)n1 [XIIa, 2'-deoxy-(RP)-P-thiocytidylyl-(3'→5')-2'-deoxycytidine sodium salt]												degraded much faster than the sample XIIb	50	72		
Nc1ccn([C@H]2C[C@H](O[P@@](O)(=S)OC[C@H]3O[C@@H](n4ccc(N)nc4=O)C[C@@H]3O)[C@@H](CO)O2)c(=O)n1 [XIIb, 2'-deoxy-(SP)-P-thiocytidylyl-(3'→5 '-2-deoxycytidinesodium salt]															almost unchanged	almost unchanged
